{"source": "paper PMC2633036", "about": "“Identifying Tumor Cell Growth Inhibitors by Combinatorial Chemistry and Zebrafish Assays” (PLoS ONE, 2009)", "target": "T1, CDK2 (Homo sapiens, UniProt P24941)", "T1 construct": "CDK2/GST-Cyclin E kinase complex produced in baculovirus expression system; with Cyclin E (GST-Cyclin E)", "test": "radiometric kinase assay (gamma-32P-ATP, histone H1 substrate) with purified recombinant CDK2/cyclin E", "type": "biochemical", "data": [{"compound": "O=c1[nH]c2c(nc3ccccn32)c2ccccc12", "note": "[13-1-a]", "values": [{"measurement": "IC50", "value": "~100", "unit": "µM"}]}, {"compound": "O=c1[nH]c2c(nc3ccccn32)c2cccc(O)c12", "note": "[13-1-e]", "values": [{"measurement": "IC50", "value": "1 to 2", "unit": "µM"}]}]}
